In US9598349B2, “Quinone based nitric oxide donating compounds for ophthalmic use” (NICOX SCIENCE IRELAND, priority 2013, dated 2017):
Like-named read-outs stand apart in the source and are kept apart here. Values belong to the molecule of their own block, whether it stands above or below them.

How the values were obtained:
[1] = test system: lipidic peroxidation of membrane lipids in rat hepatic microsomes; settings: Method B; values from Chegaev et al. (footnotes b, c); read-out: Antioxidant activity IC50 μM (CL 95%); cited from earlier work
[2] = test system: lipidic peroxidation of membrane lipids in rat hepatic microsomes; experiment: In vitro antioxidant activity (TBARS test); assay type: biochemical; settings: read-out: Antioxidant activity IC50 μM (CL 95%)
Experimental: The antioxidant properties of compound (1) (example 1), its precursors (3-methyl-3-(2,4,5-trimethyl-3,6-dioxocyclohexa-1,4-dien-1-yl)butanoic acid, described in Example 1 Step 2 (Intermediate 2) and reference antioxidant compounds were assessed after NADPH-induced lipidic peroxidation of membrane lipids in rat hepatic microsomes using the detection of 2-thiobarbituric acid reactive substances (TBARS) by visible spectroscopy.
Hepatic microsomal membranes from male Wistar rats (200-250 g) were prepared by differential centrifugation (8000 g, 20 min; 120000 g, 1 h) in a HEPES/sucrose buffer (10 mM, 250 mM, pH 7.4) and stored at −80° C. Incubation was performed at 37° C. in a Tris-HCl/KCl (100 mM/150 mM, pH 7.4) containing microsomal membranes (2 mg prot/mL), sodium ascorbate (100 μM), and DMSO solutions of the tested compounds.
Lipid peroxidation was initiated by adding ADP-FeCl3 and NADPH (Method A) or 2.5 μM FeSO4 (Method B) (as described by Boschi D. et al., J. Med. Chem. 2006, 49:2886-2897). Aliquots were taken from the incubation mixture at 5, 15, and 30 min and treated with trichloroacetic acid (TCA) 10% w/v.
Lipid peroxidation was assessed by spectrophotometric (543 nm) determination of the TBARS consisting mainly of malondialdehyde (MDA). TBARS concentrations (expressed in nmol/mg protein) were obtained by interpolation with a MDA standard curve. The antioxidant activity of tested compounds was evaluated as the percent inhibition of TBARS production with respect to control samples, using the values obtained after 30 min of incubation. IC50 values were calculated by nonlinear regression analysis.

[3] = test system: hypertonic saline-induced IOP increase; experiment: IOP lowering activity in hypertonic saline-induced IOP increase in rabbits, versus ISMN (Example 17); assay type: in vivo, New Zealand White rabbits; settings: for IOP change (mmHg): dose 1%, versus vehicle and versus basal IOP
Experimental: The present study evaluated the intraocular pressure lowering effect of single application of compound (15) (Example 12) and of ISMN (isosorbide-5-mononitrate) used as reference compound, in an animal model of elevated IOP.
(§1) Adults male New Zealand White rabbits weighting 1.8-2.0 Kg were used in the experiments.
(§2) Animals were anesthetized using 20 mg/ml/kg of sodium pentobarbital. The increase in IOP was induced by the injection of 0.1 ml of hypertonic saline solution (5%) into the vitreous bilaterally (Krauss et al., 2011, Orihashi et al., 2005).
IOP was measured using a Tono-Pen XL prior to hypertonic saline injection (basal) and at 30, 60, 90, 120, 240 and 360 min thereafter. Vehicle (5% cremophor-EL; 0.3% DMSO; 0.2 mg/ml Benzalkonium chloride in PBS pH 6.0,) or tested compound was instilled as eye drops immediately after hypertonic saline injection. Eyes were randomly assigned to different treatment groups. Vehicle or compounds were directly instilled into the conjunctiva pocket at the desired doses. One drop of 0.2% oxybuprocaine hydrochloride (Novesine, Sandoz) diluted 1:1 with saline was instilled in each eye immediately before each set of pressure measurements.
Results are reported in Table 4 and they are expressed as IOP change (at 30 and 60 minutes following topical administration) versus vehicle and versus IOP at basal before hypertonic saline injection.

[4] = test system: hypertonic saline-induced IOP increase; experiment: IOP lowering activity in hypertonic saline-induced IOP increase in rabbits, two concentrations (Example 16); assay type: in vivo, New Zealand White rabbits; settings: for IOP change (mmHg): versus vehicle and versus basal IOP
Experimental: The present study evaluated the intraocular pressure lowering effect of single applications of two different concentrations (1% and 0.3%) of compound (1) in rabbits with experimental increase in IOP.
as §1
The transient increase in IOP was induced by the injection of 0.1 ml of hypertonic saline solution (5%) into the vitreous bilaterally (Krauss et al., 2011, Orihashi et al., 2005).
IOP was measured using a Tono-Pen XL prior to hypertonic saline injection (basal) and at 30, 60, 120 and 240 min thereafter. Vehicle (5% cremophor-EL; 0.3% DMSO; 0.2 mg/ml Benzalkonium chloride in PBS pH 6.0) or compound was instilled as eye drops immediately after hypertonic saline injection. Eyes were randomly assigned to different treatment groups. Vehicle and compound were directly instilled into the conjunctiva pocket at the desired doses. One drop of 0.4% oxybuprocaine hydrochloride (Novesine, Sandoz) was instilled in each eye immediately before each set of pressure measurements.
Results are reported in Table 3 and they are expressed as IOP change (at 60 and 120 minutes following topical administration) versus vehicle and versus IOP at basal before hypertonic saline injection.

[5] = test system: hypertonic saline-induced IOP increase; experiment: IOP lowering activity in hypertonic saline-induced IOP increase in rabbits (Example 11); assay type: in vivo, New Zealand White rabbits
Experimental: The Intraocular pressure (IOP) lowering activity of compound (1) (Example 1) was assessed in an animal model of elevated IOP.
as §1, §2
IOP was measured using a Tono-Pen XL prior to hypertonic saline injection (basal) and at 30, 60, 90, 120, 240 and 360 min thereafter. Vehicle (5% cremophor-EL; 0.3% DMSO; 0.2 mg/ml Benzalkonium chloride (bac) in PBS pH 6.0,) or compound of the invention were instilled as eye drops immediately after hypertonic saline injection. Eyes were randomly assigned to different treatment groups. Vehicle or compounds of the invention were directly instilled into the conjunctiva pocket at the desired doses. One drop of 0.2% oxybuprocaine hydrochloride (Novesine, Sandoz) diluted 1:1 with saline was instilled in each eye immediately before each set of pressure measurements.
Results are reported in Table 2 in which the ocular hypotensive activity of compound (1) is expressed as mean average of IOP measurements at 60 and 120 minutes following topical administration.

[6] = Method A: lipid peroxidation induced by ADP-FeCl3 and NADPH, inhibition of TBARS production after 30 min incubation at 37° C.

SMILES: COc1ccc2[nH]cc(CCNC(C)=O)c2c1 [Melatonin]
IC50 [1]: 476 µM

SMILES: CC1=NN(c2ccccc2)C(=O)C1 [Edavarone]
IC50 [1]: 17 µM

IC50 ([2]; Method B: lipid peroxidation induced by FeSO4 and ascorbic acid, inhibition of TBARS production after 30 min incubation at 37° C.): 33 µM
SMILES: O=C(O)/C=C/c1ccc(O)c(O)c1 [Caffeic acid, reference compound]

SMILES: O=[N+]([O-])O[C@@H]1CO[C@H]2[C@@H]1OC[C@@H]2O [ISMN, isosorbide-5-mononitrate, reference compound]
IOP change (mmHg) ([3]; 30 minutes): −2.6 ± 3.5 mmHg
IOP change (mmHg) ([3]; 60 minutes): −0.7 ± 2.9 mmHg

IC50 ([2]; Method B, footnote a: tested at 1 mM concentration): 50.5 ± 0.4 µM
SMILES: COc1cc(/C=C/C(=O)O)ccc1O [Ferulic acid, reference compound]

SMILES: CC1=C(C)C(=O)C(C(C)(C)CC(=O)OCCCC[C@@H](CO[N+](=O)[O-])O[N+](=O)[O-])=C(C)C1=O [Compound (15), (S)-5,6-bis(nitrooxy)hexyl 3-methyl-3-(2,4,5-trimethyl-3,6-dioxocyclohexa-1,4-dienyl)butanoate]
IOP change (mmHg) ([3]; 30 minutes): −6.5 ± 2.6 mmHg
IOP change (mmHg) ([3]; 60 minutes): −4.9 ± 2.4 mmHg
IOP reduction compared to ISMN (in words) ([3]; single application, 1%): significantly higher IOP reduction as compared to ISMN treated group

IC50 [2, 6]: 157 µM
SMILES: CC1=C(C)C(=O)C(C(C)(C)CC(=O)O)=C(C)C1=O [Intermediate 2, 3-methyl-3-(2,4,5-trimethyl-3,6-dioxocyclohexa-1,4-dien-1-yl)butanoic acid]

IC50 [2, 6]: 28 µM
SMILES: CC1=C(C)C(=O)C(C(C)(C)CC(=O)OCCCCO[N+](=O)[O-])=C(C)C1=O [Compound (1), 4-(nitrooxy)butyl 3-methyl-3-(2,4,5-trimethyl-3,6-dioxocyclohexa-1,4-dienyl)butanoate]
IOP change (mmHg) ([4]; dose 0.3%, 60 minutes): −5.5 ± 3.1 mmHg
IOP change (mmHg) ([4]; dose 0.3%, 120 minutes): −5.7 ± 2.1 mmHg
IOP change (mmHg) ([4]; dose 1%, 60 minutes): −9.1 ± 3.4 mmHg
IOP change (mmHg) ([4]; dose 1%, 120 minutes): −9.5 ± 2.2 mmHg
IOP reduction (in words) ([4]; single application, both doses (1% and 0.3%)): significant IOP reduction
IOP (mmHg) ([5]; 60 minutes following topical administration (eye drops)): 29 ± 7.8 mmHg
IOP (mmHg) ([5]; 120 minutes following topical administration (eye drops)): 18.9 ± 4.1 mmHg
